Assay results published in patent US20250011878A1, “METHOD TO DETECT RNA BIOMARKERS” (ITALFARMACO SPA, priority 2021, published 2025).

Tested on: human monocytes
Experiment: RNAseq gene expression in purified human monocytes treated with ITF3756 and/or TNF-α
Assay type: cell-based
Source text: PBMCs used for the experiments were obtained from Buffy Coats of healthy donors (all samples tested negative for transmissible diseases as required for blood transfusion) separated over a Ficoll-Hypaque gradient (Biochrom). Monocytes were purified by negative selection from 100×10^6 PBMC using Pan Monocytes Isolation Kit (Milteny) following manufacturer's instructions. By Pan Monocyte Isolation kit untouched monocytes are isolated from human PBMCs and the simultaneous enrichment of classical (CD14^++CD16^−), non classical (CD14^+CD16^++) and intermediate (CD14^++CD16^+) monocytes is achieved. Non-monocytes, such as T cells, NK cells, B cells, dendritic cells, and basophils are indirectly magnetically labeled using a cocktail of biotin-conjugated antibodies and anti-Biotin MicroBeads. Briefly, 400 μL of Buffer (PBS 1×, 0.5% BSA and 2 mM EDTA), 100 μL of FcR Blocking Reagent and 100 μL of Biotin-Antibody Cocktail were added to PBMC, previously washed with PBS by centrifugation 300×g for 5 minutes, mixed and incubate for 5 minutes in the refrigerator (2-8° C.). After incubation, 300 μL of Buffer and 200 μL of anti-biotin microbeads were added to the cells, mixed and incubate further for 10 minutes in the refrigerator. After incubation cells were processed by subsequent magnetic cell separation. Cell suspension was applied onto the column and the flow-through containing unlabeled cells, representing the enriched monocytes, was collected. Purified monocytes were washed with Buffer by centrifugation 300×g for 5 minutes and counted in PBS. Purified monocytes (1,0×10^6/ml) were pre-treated for 2 h with ITF3756 1 μM or DMSO (0.005%) in 12-well plates in 1 ml final volume of complete medium (RPMI (Biochrom), FCS 10% and penicillin/streptomycin 1× (Sigma)). The cells were then stimulated or not with TNF-α (100 ng/mL, Peprotech) for 4h. After incubation with ITF3756 and TNF-α, the cells were collected, washed with PBS by centrifugation 300×g for 5 minutes and stored at −80° C. Samples were thawed on the bench for 2 minutes and total RNA was extracted with Trizol reagent (Thermo Fisher Scientific), following manufacturer's instructions. Briefly, Trizol reagent (0.75 ml Trizol per 5-10×10^6 cells) was added to the samples and the samples were incubated at room temperature (RT) for 5 minutes. After incubation, chloroform (150 μL per 0.75 mL Trizol) was added to the samples and after 3 minutes of incubation at RT, samples were centrifuged for 12000×g for 14 minutes at 4° C. After centrifugation, the mixture separates into 3 phases and RNA remains in the aqueous phase. The aqueous phase was removed for each sample and placed in new tubes, and isopropanol (0,375 ml per 0.75 ml of Trizol) was added in each tube. Samples was incubated for 30 minutes in the refrigerator (2-8° C.). After incubation, samples were centrifugated for 12000×g for 10 minutes at 4° C., the supernatant was removed and 75% ethanol (0.75 ml per 0.75 ml of Trizol) was added to samples. Samples were centrifuged for 7500×g for 5 minutes at 4° C., and the supernatant discarded. RNA was air dried on the bench for 5-10 minutes. RNA Samples was then resuspended in water (10-50 μL). The scheme of the experimental procedures carried out to generate the RNA sequence data is represented in FIG. 1. To determine the quantity and the integrity/purity of RNA samples, check controls were first performed by the Agilent Technologies 2100 Bioanalyzer using RNA 6000 LabChip® kit (Agilent #5067-1511). The Bioanalyzer is a bio-analytical device based on a combination of microfluidic chips, voltage-induced size separation in gel filled channels and laser-induced fluorescence (LIF) detection on a miniaturized scale. The RNA Integrity Number (RIN) software algorithm allows the classification of total RNA, based on a numbering system from 1 to 10, (with 1 being the most degraded and 10 being the most intact). […] Purified samples were processed using TruSeq RNA-Seq v2 Library Preparation Kit. […]

[1] = ITF3756 1 μM in combination with TNF-α 100 ng/mL, RNAseq
[2] = ITF3756 1 μM in the presence of TNF-α 100 ng/mL, RNAseq
[3] = ITF3756 + TNFα vs vehicle-treated control (don)
[4] = M2 marker, human monocytes, ITF3756 1 μM, RNAseq
[5] = single treatment (ITF3756 1 μM or TNF-α 100 ng/mL), RNAseq, vs control
[6] = single treatment (ITF3756 1 μM), RNAseq, vs control
[7] = single treatment vs vehicle-treated control (don), monocytes 4 h, padj<0.05
[8] = versus control, not shared with TNF-α or ITF3756+TNF-α

With O=C(NO)c1ccc(Cn2nnnc2-c2cccs2)cc1 [ITF3756, N-hydroxy-4-((5-(thiophen-2-yl)-1 H-tetrazol-1-yl)methyl)benzamide] the CD40 gene expression (ITF3756 1 μM combined with TNF-α 100 ng/mL, RNAseq) was “slightly increases the upregulation of CD40 expression induced by TNF-α alone”, the ADA gene expression [1] was “upregulation” and the FATP1/SLC27A1 gene expression [1] was “the basal expression of the gene is maintained”. The IRF6 gene expression [1] was “no effect”, the NBEAL2 gene expression [1] was “increases the expression” and the ANXA6 gene expression [2] was “the upregulation is even stronger and probably synergistic”. The CD84 gene expression [2] was “downregulation is further enhanced”, the CD163 gene expression [2] was “down-modulated” and the CD204/MSR1 gene expression [2] was “strongly down-modulated”. For the same compound, the CD206/MRC1 gene expression [2] was “strongly down-modulated”, the CXCL2 gene expression [2] was “reverts the upregulation induce by TNF establishing a normal level of expression” and the LTBP4 gene expression [2] was “counters this downregulation”. For the same compound, the RANK/TNFRSF11a gene expression [2] was “downregulation of RANK/TNFRSF11a is increased compared to single treatments”, the STAB1 gene expression [2] was “synergistically reduced” and the “Genes Down regulated (number of genes modulated)” value [3] was 2329. For the same compound, the “Genes Up regulated (number of genes modulated)” value [3] was 2282, the MMP9 gene expression (ITF3756+TNF-α, compared to untreated control, RNAseq) was “No modulation” and the “Fold change ADA” value [4] was −1.9. The “Fold change CD163” value [4] was −4, the “Fold change CD204/MSR1” value [4] was −2.6 and the “Fold change CD206/MRC1” value [4] was −13.3. The “Fold change MMP9” value [4] was −3.6, the “Fold change STAB1 (Stabilin-1/Clever-1)” value [4] was −14 and the “downregulation of PD-L1 (CD274) gene expression” value (cells treated with TNF-α+ITF3756, RNAseq) was 59%. For the same compound, the ADA gene expression [5] was “downmodulated”, the IRF6 gene expression [5] was “upregulates the expression” and the LTBP4 gene expression [5] was “upregulates the expression”. For the same compound, the MMP9 gene expression (single treatment (ITF3756 1 μM or TNF-α 100 ng/mL), RNAseq, vs untreated control) was “down-modulated”, the ANXA6 gene expression [6] was “robust upregulation” and the CD40 gene expression [6] was “upregulates”. For the same compound, the CD84 gene expression [6] was “strongly downregulates”, the CD163 gene expression [6] was “down-modulated” and the CD204/MSR1 gene expression [6] was “down-modulated”. The CD206/MRC1 gene expression [6] was “strongly down-modulated”, the CXCL2 gene expression [6] was “decreases the expression” and the CXCL3 gene expression [6] was “reduced the expression”. For the same compound, the FATP1/SLC27A1 gene expression [6] was “up-regulates the expression”, the NBEAL2 gene expression [6] was “increases the expression” and the RANK/TNFRSF11a gene expression [6] was “strong downregulation”. For the same compound, the STAB1 gene expression [6] was “strongly downregulated”, the CD276 gene expression (single treatment (ITF3756), vs control) was “down-regulated the expression” and the “Genes Down regulated (number of genes modulated)” value [7] was 1503. For the same compound, the “Genes Up regulated (number of genes modulated)” value [7] was 1499, the “genes specifically downregulated (Venn diagram)” value [8] was 386 and the “genes specifically upregulated (Venn diagram)” value [8] was 537.
